{
  "source": "patent US9682995B2",
  "about": "“Amino-substituted isothiazoles” (BAYER PHARMA AKTIENGESELLSCHAFT, priority 2013, dated 2017)",
  "experiment_in_all_cases": "Kinase Profiling (KINOMEscan)",
  "type_in_all_cases": "binding",
  "key": {"[1]": {"target": "456 kinases (of these 395 non-mutant kinases) (Homo sapiens, UniProt Q86UX6)", "conditions": "YANK3; 10 μM"}, "[2]": {"target": "456 kinases (of these 395 non-mutant kinases) (Homo sapiens, UniProt Q13233)", "conditions": "MAP3K1; 10 μM"}, "[3]": {"target": "456 kinases (of these 395 non-mutant kinases) (Homo sapiens, UniProt P00533, L858R)", "conditions": "EGFR(L858R); 10 μM"}, "[4]": {"target": "456 kinases (of these 395 non-mutant kinases) (Homo sapiens, UniProt O15111)", "conditions": "IKK-alpha; 10 μM"}, "[5]": {"target": "456 kinases (of these 395 non-mutant kinases) (Homo sapiens, UniProt P21127)", "conditions": "CDC2L1; 10 μM"}, "[6]": {"target": "456 kinases (of these 395 non-mutant kinases) (Homo sapiens, UniProt P06213)", "conditions": "INSR; 10 μM"}, "[7]": {"target": "456 kinases (of these 395 non-mutant kinases) (Homo sapiens, UniProt P78362)", "conditions": "SRPK2; 10 μM"}, "[8]": {"target": "456 kinases (of these 395 non-mutant kinases) (Homo sapiens, UniProt Q8NFD2)", "conditions": "ANKK1; 10 μM"}, "[9]": {"target": "456 kinases (of these 395 non-mutant kinases) (Homo sapiens, UniProt Q8IVW4)", "conditions": "CDKL3; 10 μM"}, "[10]": {"target": "456 kinases (of these 395 non-mutant kinases) (Homo sapiens, UniProt P08631)", "sequence (P08631 2-526 limits assumed, change not shown)": "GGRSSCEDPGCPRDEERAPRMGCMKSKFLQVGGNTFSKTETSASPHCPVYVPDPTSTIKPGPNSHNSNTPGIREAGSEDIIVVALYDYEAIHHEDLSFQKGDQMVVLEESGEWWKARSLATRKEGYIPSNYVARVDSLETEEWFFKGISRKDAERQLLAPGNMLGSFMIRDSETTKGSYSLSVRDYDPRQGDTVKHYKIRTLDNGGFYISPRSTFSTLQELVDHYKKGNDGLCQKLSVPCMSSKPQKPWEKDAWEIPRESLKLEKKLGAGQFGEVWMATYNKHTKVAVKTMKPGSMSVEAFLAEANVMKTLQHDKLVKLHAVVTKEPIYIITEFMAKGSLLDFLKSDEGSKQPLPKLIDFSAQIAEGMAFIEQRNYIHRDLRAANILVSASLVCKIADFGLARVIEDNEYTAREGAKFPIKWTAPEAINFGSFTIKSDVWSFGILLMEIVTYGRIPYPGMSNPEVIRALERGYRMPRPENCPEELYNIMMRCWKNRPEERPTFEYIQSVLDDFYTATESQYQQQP", "conditions": "HCK; 10 μM"}, "[11]": {"target": "456 kinases (of these 395 non-mutant kinases) (Homo sapiens, UniProt P00519)", "conditions": "10 μM"}, "[12]": {"target": "456 kinases (of these 395 non-mutant kinases) (Homo sapiens, UniProt P00519, H396P)", "conditions": "10 μM"}, "[13]": {"target": "456 kinases (of these 395 non-mutant kinases) (Homo sapiens, UniProt P57059)", "conditions": "SIK; 10 μM"}, "[14]": {"target": "456 kinases (of these 395 non-mutant kinases) (Homo sapiens, UniProt Q9H422)", "conditions": "HIPK3; 10 μM"}, "[15]": {"target": "456 kinases (of these 395 non-mutant kinases) (Homo sapiens, UniProt P22607)", "sequence (P22607 23-806 limits assumed, change not shown)": "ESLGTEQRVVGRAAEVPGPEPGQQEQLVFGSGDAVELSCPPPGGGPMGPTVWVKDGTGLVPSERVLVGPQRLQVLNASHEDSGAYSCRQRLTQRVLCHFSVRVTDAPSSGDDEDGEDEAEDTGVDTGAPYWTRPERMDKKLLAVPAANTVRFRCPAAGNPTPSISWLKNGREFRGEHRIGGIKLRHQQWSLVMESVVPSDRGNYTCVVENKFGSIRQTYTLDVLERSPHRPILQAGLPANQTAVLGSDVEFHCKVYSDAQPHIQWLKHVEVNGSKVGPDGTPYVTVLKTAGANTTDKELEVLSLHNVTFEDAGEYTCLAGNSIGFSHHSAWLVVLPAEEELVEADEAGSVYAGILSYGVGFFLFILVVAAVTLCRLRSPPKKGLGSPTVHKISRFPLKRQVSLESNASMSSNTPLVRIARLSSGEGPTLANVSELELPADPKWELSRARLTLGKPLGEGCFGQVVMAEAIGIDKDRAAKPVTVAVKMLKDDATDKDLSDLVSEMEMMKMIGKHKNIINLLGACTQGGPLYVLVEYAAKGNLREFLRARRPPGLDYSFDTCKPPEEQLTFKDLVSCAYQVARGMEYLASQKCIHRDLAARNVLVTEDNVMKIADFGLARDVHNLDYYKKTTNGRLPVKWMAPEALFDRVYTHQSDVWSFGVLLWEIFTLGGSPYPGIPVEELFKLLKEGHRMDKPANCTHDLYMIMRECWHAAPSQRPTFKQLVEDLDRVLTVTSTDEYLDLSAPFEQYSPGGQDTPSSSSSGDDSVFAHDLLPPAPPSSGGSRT", "conditions": "FGFR3; 10 μM"}, "[16]": {"target": "456 kinases (of these 395 non-mutant kinases) (Homo sapiens, UniProt O14976)", "sequence (O14976 2-1311 limits assumed, change not shown)": "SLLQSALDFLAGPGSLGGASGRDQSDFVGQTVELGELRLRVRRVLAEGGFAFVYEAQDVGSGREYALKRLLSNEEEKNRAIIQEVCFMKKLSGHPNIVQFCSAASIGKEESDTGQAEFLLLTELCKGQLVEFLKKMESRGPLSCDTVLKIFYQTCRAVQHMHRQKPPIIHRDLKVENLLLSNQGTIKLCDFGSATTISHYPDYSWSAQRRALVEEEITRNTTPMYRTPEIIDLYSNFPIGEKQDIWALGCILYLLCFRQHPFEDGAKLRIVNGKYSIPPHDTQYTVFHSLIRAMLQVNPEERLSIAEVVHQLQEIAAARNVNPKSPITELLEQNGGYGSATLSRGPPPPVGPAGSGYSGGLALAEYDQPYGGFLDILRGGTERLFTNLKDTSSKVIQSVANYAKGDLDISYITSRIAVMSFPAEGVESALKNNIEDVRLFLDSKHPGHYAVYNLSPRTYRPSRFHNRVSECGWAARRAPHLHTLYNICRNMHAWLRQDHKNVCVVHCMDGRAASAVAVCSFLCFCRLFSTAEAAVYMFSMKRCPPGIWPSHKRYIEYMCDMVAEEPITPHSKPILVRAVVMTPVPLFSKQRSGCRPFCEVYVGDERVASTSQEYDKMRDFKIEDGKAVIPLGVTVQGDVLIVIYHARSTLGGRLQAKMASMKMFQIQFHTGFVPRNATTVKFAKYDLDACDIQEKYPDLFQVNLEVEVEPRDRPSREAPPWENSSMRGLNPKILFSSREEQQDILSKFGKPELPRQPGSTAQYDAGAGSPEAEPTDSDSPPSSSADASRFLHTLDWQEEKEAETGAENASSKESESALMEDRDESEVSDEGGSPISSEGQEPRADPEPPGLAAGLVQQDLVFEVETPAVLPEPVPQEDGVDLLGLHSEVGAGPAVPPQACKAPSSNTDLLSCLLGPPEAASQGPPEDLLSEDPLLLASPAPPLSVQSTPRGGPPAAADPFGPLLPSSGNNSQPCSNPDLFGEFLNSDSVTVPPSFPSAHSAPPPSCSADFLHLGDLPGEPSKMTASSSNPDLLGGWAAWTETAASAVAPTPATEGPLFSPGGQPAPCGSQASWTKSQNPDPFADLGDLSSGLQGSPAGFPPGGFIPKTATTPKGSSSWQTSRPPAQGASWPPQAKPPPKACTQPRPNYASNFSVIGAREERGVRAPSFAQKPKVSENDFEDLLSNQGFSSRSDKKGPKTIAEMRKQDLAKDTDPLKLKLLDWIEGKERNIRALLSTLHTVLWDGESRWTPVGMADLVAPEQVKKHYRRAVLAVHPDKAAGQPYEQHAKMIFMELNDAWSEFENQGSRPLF", "conditions": "GAK; 10 μM"}, "[17]": {"target": "456 kinases (of these 395 non-mutant kinases) (Homo sapiens, UniProt P29597)", "conditions": "10 μM"}, "[18]": {"target": "456 kinases (of these 395 non-mutant kinases) (Homo sapiens, UniProt O14730)", "conditions": "RIOK3; 10 μM"}, "[19]": {"target": "456 kinases (of these 395 non-mutant kinases) (Homo sapiens, UniProt O95819)", "sequence (O95819 2-1239 limits assumed, change not shown)": "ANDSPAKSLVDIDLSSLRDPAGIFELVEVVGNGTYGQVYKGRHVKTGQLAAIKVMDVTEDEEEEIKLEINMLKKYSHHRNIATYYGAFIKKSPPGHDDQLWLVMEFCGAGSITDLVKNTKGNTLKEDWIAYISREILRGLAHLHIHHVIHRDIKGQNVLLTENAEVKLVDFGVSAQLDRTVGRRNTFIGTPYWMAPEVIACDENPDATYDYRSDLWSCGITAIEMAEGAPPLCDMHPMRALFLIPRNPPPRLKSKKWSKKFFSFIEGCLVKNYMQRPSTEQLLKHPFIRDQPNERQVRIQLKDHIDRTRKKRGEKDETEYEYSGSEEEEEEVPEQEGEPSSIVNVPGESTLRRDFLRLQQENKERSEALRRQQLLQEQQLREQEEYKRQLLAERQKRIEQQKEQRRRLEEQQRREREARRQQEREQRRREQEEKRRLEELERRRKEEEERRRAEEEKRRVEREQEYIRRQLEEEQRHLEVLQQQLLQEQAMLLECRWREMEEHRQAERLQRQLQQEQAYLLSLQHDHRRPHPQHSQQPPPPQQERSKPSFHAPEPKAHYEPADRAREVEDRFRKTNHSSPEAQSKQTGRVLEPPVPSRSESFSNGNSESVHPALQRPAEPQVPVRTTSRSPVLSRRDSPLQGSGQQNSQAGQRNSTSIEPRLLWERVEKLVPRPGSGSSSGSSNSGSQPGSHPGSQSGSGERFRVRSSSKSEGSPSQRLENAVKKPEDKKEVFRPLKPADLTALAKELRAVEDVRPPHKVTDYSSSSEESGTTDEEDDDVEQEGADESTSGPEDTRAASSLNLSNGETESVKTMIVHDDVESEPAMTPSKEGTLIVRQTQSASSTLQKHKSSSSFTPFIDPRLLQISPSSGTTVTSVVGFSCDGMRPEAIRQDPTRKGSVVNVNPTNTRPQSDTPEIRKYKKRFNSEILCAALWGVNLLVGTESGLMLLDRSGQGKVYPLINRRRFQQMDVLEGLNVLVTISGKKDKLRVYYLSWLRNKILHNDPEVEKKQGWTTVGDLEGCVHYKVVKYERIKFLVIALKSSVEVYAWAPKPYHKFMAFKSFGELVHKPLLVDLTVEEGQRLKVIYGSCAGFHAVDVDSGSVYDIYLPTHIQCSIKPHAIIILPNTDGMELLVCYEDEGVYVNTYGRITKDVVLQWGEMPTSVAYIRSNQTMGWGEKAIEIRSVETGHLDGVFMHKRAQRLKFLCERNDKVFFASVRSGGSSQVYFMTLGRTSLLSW", "conditions": "MAP4K4; 10 μM"}, "[20]": {"target": "456 kinases (of these 395 non-mutant kinases) (Homo sapiens, UniProt Q6PHR2)", "conditions": "ULK3; 10 μM"}, "[21]": {"target": "456 kinases (of these 395 non-mutant kinases) (Homo sapiens, UniProt Q96L34)", "conditions": "MARK4; 10 μM"}, "[22]": {"target": "456 kinases (of these 395 non-mutant kinases) (Homo sapiens, UniProt Q16513)", "conditions": "PKN2; 10 μM"}, "[23]": {"target": "456 kinases (of these 395 non-mutant kinases) (Homo sapiens, UniProt P15735)", "conditions": "PHKG2; 10 μM"}, "[24]": {"target": "456 kinases (of these 395 non-mutant kinases) (Homo sapiens, UniProt P00533)", "conditions": "EGFR; 10 μM"}, "[25]": {"target": "456 kinases (of these 395 non-mutant kinases) (Homo sapiens, UniProt Q8IYT8)", "conditions": "ULK2; 10 μM"}, "[26]": {"target": "456 kinases (of these 395 non-mutant kinases) (Homo sapiens, UniProt P20794)", "conditions": "MAK; 10 μM"}, "[27]": {"target": "456 kinases (of these 395 non-mutant kinases) (Homo sapiens, UniProt P42680)", "conditions": "TEC; 10 μM"}, "[28]": {"target": "456 kinases (of these 395 non-mutant kinases) (Homo sapiens, UniProt O60331)", "conditions": "PIP5K1C; 10 μM"}, "[29]": {"target": "456 kinases (of these 395 non-mutant kinases) (Homo sapiens, UniProt Q9HBH9)", "conditions": "MKNK2; 10 μM"}, "[30]": {"target": "456 kinases (of these 395 non-mutant kinases) (Homo sapiens, UniProt P19784)", "conditions": "CSNK2A2; 10 μM"}, "[31]": {"target": "456 kinases (of these 395 non-mutant kinases) (Homo sapiens, UniProt Q9H2K8)", "conditions": "TAOK3; 10 μM"}, "[32]": {"target": "456 kinases (of these 395 non-mutant kinases) (Homo sapiens, UniProt Q07002)", "conditions": "PCTK3; 10 μM"}},
  "data": [
    {"compound": "CCc1ccccc1NC(=O)c1c(C)nsc1Nc1cnc2cc(F)ccc2n1", "note": "[Example 20, N-(2-Ethylphenyl)-5-[(6-fluoroquinoxalin-2-yl)amino]-3-methyl-1,2-thiazole-4-carboxamide]", "values": [
      {"measurement": "% Ctrl @ 10 μM", "setting": "[1]", "value": 67, "unit": "% Ctrl"},
      {"measurement": "% Ctrl @ 10 μM", "setting": "[2]", "value": 84, "unit": "% Ctrl"},
      {"measurement": "% Ctrl @ 10 μM", "setting": "[3]", "value": 96, "unit": "% Ctrl"},
      {"measurement": "% Ctrl @ 10 μM", "setting": "[4]", "value": 84, "unit": "% Ctrl"},
      {"measurement": "% Ctrl @ 10 μM", "setting": "[5]", "value": 92, "unit": "% Ctrl"},
      {"measurement": "% Ctrl @ 10 μM", "setting": "[6]", "value": 98, "unit": "% Ctrl"},
      {"measurement": "% Ctrl @ 10 μM", "setting": "[7]", "value": 100, "unit": "% Ctrl"},
      {"measurement": "% Ctrl @ 10 μM", "setting": "[8]", "value": 100, "unit": "% Ctrl"},
      {"measurement": "% Ctrl @ 10 μM", "setting": "[9]", "value": 66, "unit": "% Ctrl"},
      {"measurement": "% Ctrl @ 10 μM", "setting": "[10]", "value": 59, "unit": "% Ctrl"},
      {"measurement": "% Ctrl @ 10 μM", "setting": "[11]; ABL1-nonphosphorylated", "value": 100, "unit": "% Ctrl"},
      {"measurement": "% Ctrl @ 10 μM", "setting": "[11]; ABL1-phosphorylated", "value": 100, "unit": "% Ctrl"},
      {"measurement": "% Ctrl @ 10 μM", "setting": "[12]; ABL1(H396P)-nonphosphorylated", "value": 100, "unit": "% Ctrl"},
      {"measurement": "% Ctrl @ 10 μM", "setting": "[12]; ABL1(H396P)-phosphorylated", "value": 92, "unit": "% Ctrl"},
      {"measurement": "% Ctrl @ 10 μM", "setting": "[13]", "value": 100, "unit": "% Ctrl"},
      {"measurement": "% Ctrl @ 10 μM", "setting": "[14]", "value": 96, "unit": "% Ctrl"},
      {"measurement": "% Ctrl @ 10 μM", "setting": "[15]", "value": 85, "unit": "% Ctrl"},
      {"measurement": "% Ctrl @ 10 μM", "setting": "[16]", "value": 96, "unit": "% Ctrl"},
      {"measurement": "% Ctrl @ 10 μM", "setting": "[17]; TYK2(JH1domain-catalytic)", "value": 100, "unit": "% Ctrl"},
      {"measurement": "% Ctrl @ 10 μM", "setting": "[17]; TYK2(JH2domain-pseudokinase)", "value": 100, "unit": "% Ctrl"},
      {"measurement": "% Ctrl @ 10 μM", "setting": "[18]", "value": 91, "unit": "% Ctrl"},
      {"measurement": "% Ctrl @ 10 μM", "setting": "[19]", "value": 100, "unit": "% Ctrl"},
      {"measurement": "% Ctrl @ 10 μM", "setting": "[20]", "value": 100, "unit": "% Ctrl"},
      {"measurement": "% Ctrl @ 10 μM", "setting": "[21]", "value": 100, "unit": "% Ctrl"},
      {"measurement": "% Ctrl @ 10 μM", "setting": "[22]", "value": 100, "unit": "% Ctrl"},
      {"measurement": "% Ctrl @ 10 μM", "setting": "[23]", "value": 99, "unit": "% Ctrl"},
      {"measurement": "% Ctrl @ 10 μM", "setting": "[24]", "value": 98, "unit": "% Ctrl"},
      {"measurement": "% Ctrl @ 10 μM", "setting": "[25]", "value": 100, "unit": "% Ctrl"},
      {"measurement": "% Ctrl @ 10 μM", "setting": "[26]", "value": 100, "unit": "% Ctrl"},
      {"measurement": "% Ctrl @ 10 μM", "setting": "[27]", "value": 100, "unit": "% Ctrl"},
      {"measurement": "% Ctrl @ 10 μM", "setting": "[28]", "value": 100, "unit": "% Ctrl"},
      {"measurement": "% Ctrl @ 10 μM", "setting": "[29]", "value": 100, "unit": "% Ctrl"},
      {"measurement": "% Ctrl @ 10 μM", "setting": "[30]", "value": 100, "unit": "% Ctrl"},
      {"measurement": "% Ctrl @ 10 μM", "setting": "[31]", "value": 100, "unit": "% Ctrl"},
      {"measurement": "% Ctrl @ 10 μM", "setting": "[32]", "value": 82, "unit": "% Ctrl"}
    ]}
  ]
}
